Assay [1] concerns the target T1, human dopamine β-hydroxylase (Homo sapiens, UniProt P09172).
T1 construct: Human secretory DBH was purified from the culture medium of the neuroblastoma cell line SK-N-SH; endogenous in cells; host or cells: SK-N-SH neuroblastoma cells (enzyme secreted into the culture medium, purified on lentil lectin-sepharose)
T1 sequence (P09172 40-617 limits assumed): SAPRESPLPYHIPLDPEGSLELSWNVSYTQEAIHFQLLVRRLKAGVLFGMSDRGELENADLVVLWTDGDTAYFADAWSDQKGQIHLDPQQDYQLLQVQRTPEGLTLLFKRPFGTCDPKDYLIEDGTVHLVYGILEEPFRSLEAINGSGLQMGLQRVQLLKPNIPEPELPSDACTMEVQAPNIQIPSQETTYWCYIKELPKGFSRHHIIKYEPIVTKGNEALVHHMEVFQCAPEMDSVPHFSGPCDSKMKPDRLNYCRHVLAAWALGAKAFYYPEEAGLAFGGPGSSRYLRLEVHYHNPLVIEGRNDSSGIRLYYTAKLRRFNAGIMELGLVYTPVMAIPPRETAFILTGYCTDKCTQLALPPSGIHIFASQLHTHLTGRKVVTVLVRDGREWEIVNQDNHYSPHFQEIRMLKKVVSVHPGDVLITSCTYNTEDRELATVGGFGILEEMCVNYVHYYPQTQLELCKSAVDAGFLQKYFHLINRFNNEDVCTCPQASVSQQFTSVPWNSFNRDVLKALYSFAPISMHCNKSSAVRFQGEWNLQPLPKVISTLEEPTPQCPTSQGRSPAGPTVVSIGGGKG
Description: DBH assay, conversion of tyramine to octopamine. Format: biochemical. The procedure: Bovine and human dopamine β-hydroxylase activity were assayed by measuring the conversion of tyramine to octopamine. Bovine adrenal dopamine β-hydroxylase was obtained from Sigma Chemicals (St Louis, Mo., USA) whereas human dopamine β-hydroxylase was purified from the culture medium of the neuroblastoma cell line SK-N-SH. The assay was performed at pH 5.2 and 32° C. in a medium containing 0.125 M NaAc, 10 mM fumarate, 0.5-2 μM CuSO4, 0.1 mg·ml^−1 catalase, 0.1 mM tyramine and 4 mM ascorbate. In a typical assay, 0.5-1 milliunits of enzyme were added to the reaction mixture and, subsequently, a substrate mixture containing catalase, tyramine and ascorbate was added to initiate the reaction (final volume of 200 μl). Samples were incubated with or without the appropriate concentration of nepicastat or Compound B at 37° C. for 30 to 40 minutes. The reaction was quenched by the stop solution containing 25 mM EDTA and 240 μM 3-hydroxytyramine (internal standard). The samples were analyzed for octopamine by reverse phase high pressure liquid chromatography (HPLC) using ultraviolet-detection at […]. The HPLC chromatography run was carried out at the flow rate of 1 ml·min^−1 using a LiChroCART 125-4 RP-18 column and isocratic elution with 10 mM acidic acid, 10 mM 1-heptane sulfonic acid, 12 mM tetrabutyl ammonium phosphate and 10% methanol. The remaining percent activity was calculated based on controls, corrected using internal standards and fitted to a non-linear four-parameter concentration-response curve.
DBH activity was assayed by measuring the conversion of tyramine to octopamine. Bovine DBH from adrenal glands was obtained from Sigma Chemical Co (St Louis, Mo.). Human secretory DBH was purified from the culture medium of the neuroblastoma cell line SK-N-SH. The assay was performed at pH 5.2 and 32° C. in 0.125 M NaOAc, 10 mM fumarate, 0.5-2 μM CUSO4, 0.1 mg/mL catalase, 0.1 mM tyramine and 4 mM ascorbate. In a typical assay, 0.5-1 milliunits of enzyme were added to the reaction mixture and then a substrate mixture containing catalase, tyramine and ascorbate was added to initiate the reaction (final volume of 200 μL). Samples were incubated with or without the appropriate concentration of the inhibitor at 37° C. for 30-40 min. The reaction was quenched by the stop solution containing 25 mM EDTA and 240 μM 3-hydroxytyramine (internal standard). The samples were analyzed for octopamine by reverse phase HPLC using UV detection at […]. The remaining percent activity was calculated based on controls (without inhibitor), corrected using internal standards and fitted to a non-linear 4-parameter concentration-response curve to obtain IC50 values.
Bovine DBH from adrenal glands was obtained from Sigma Chemicals (St. Louis, Mo.). Human secretory DBH was purified from the culture medium of the neuroblastoma cell line SK-N-SH and was used to obtain the inhibition data. A lentil lectin-sepharose column containing 25 ml gel was prepared and equilibrated with 50 mM KH2PO4, pH 6.5, 0.5 M NaCl. The column was eluted with 35 ml of 10% methyl a, D-mannopyranoside in 50 mM KH2PO4, pH 6.5, 0.5 M NaCl at 0.5 ml/min. Fraction containing most enzymatic activities were pooled and concentrated with an Amicon stirred cell using a YM30 membrane. Methyl a, D-mannopyranoside was removed by buffer exchange with in 50 mM KH2PO4, pH 6.5, 0.1M NaCl. The concentrated enzyme solution was aliquoted and stored at −25° C.
An HPLC assay was used to measure DBH activity using tyramine and ascorbate as substrates. […]

The test system of assay [2] is plasma dopamine/norepinephrine. The assay can be described thus: Plasma dopamine/norepinephrine in congestive heart failure patients. Format: in vivo, human. As for the experimental part:
In studies of congestive heart failure patients, changes in plasma dopamine levels, norepinephrine levels, and dopamine/norepinephrine ratios after treatment with nepicastat in a 10 day study were determined.
In studies of congestive heart failure patients, plasma dopamine levels, norepinephrine levels, and dopamine/norepinephrine ratios and changes of the levels and the ratios after treatment with nepicastat in a 30 day study were determined.

In the next assay the target is HMG-CoA reductase (Homo sapiens, UniProt P04035). The assay can be described thus: Enzyme selectivity assay. Format: biochemical. The procedure:
(§1) The activity of nepicastat at twelve selected enzymes and receptors was determined using established assays. Binding data were analyzed by iterative curve-fitting to a four parameter logistic equation. Ki values were calculated from IC50 values using the Cheng-Prusoff equation. Enzyme inhibitory activity was expressed as IC50 (concentration required to produce 50% inhibition of enzyme activity).
(§2) The activity of nepicastat at eleven different enzymes was determined using established assays. The affinity of nepicastat for thirteen selected receptors was determined by radioligand binding assays using standard filtration techniques and membrane preparations. Binding data were analyzed by iterative curve fitting to a four parameter logistic equation. Ki values were calculated using the Cheng-Prusoff equation.

For another assay, the target named is cyclooxygenase-I (Homo sapiens, UniProt P23219). The assay can be described thus: Enzyme selectivity assay. Format: biochemical. As for the experimental part: as §1, §2
The next assay deals with nitric oxide synthase. Description: Enzyme selectivity assay. Format: biochemical. As for the experimental part:
as §1, §2

The target in another assay is phosphodiesterase III. Description: Enzyme selectivity assay. Format: biochemical. As for the experimental part:
as §1, §2

A further assay has as its target protein kinase C. The assay can be described thus: Enzyme selectivity assay. Format: biochemical. As for the experimental part: as §1, §2
The next assay has as its target neutral endopeptidase (Homo sapiens, UniProt P08473). The assay can be described thus: Enzyme selectivity assay. Format: biochemical. As for the experimental part: as §1, §2
The target of assay [3] is Ca2+/calmodulin protein kinase II. Description: Enzyme selectivity assay. Format: biochemical. The procedure:
as §1, §2

Assay [4] concerns the target acyl CoA-cholesterol acyl transferase. The assay can be described thus: Enzyme selectivity assay. Format: biochemical. The procedure:
as §1, §2

Some results are limits rather than exact numbers.

Chain of cyclooxygenase-I (P23219 24-599): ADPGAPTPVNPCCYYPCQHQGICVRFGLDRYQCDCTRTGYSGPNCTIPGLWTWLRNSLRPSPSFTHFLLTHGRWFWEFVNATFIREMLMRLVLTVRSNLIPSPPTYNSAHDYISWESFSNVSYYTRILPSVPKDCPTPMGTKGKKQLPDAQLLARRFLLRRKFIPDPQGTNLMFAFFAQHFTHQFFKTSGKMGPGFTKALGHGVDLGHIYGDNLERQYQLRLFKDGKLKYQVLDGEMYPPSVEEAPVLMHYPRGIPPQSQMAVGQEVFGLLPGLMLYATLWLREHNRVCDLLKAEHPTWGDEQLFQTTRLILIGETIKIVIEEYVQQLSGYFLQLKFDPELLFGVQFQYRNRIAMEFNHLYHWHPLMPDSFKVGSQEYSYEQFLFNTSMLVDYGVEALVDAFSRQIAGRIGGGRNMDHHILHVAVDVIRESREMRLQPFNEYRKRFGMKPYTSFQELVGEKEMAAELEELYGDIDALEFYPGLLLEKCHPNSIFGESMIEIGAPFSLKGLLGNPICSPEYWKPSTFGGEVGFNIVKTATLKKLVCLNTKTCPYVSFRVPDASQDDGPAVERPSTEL
Chain of neutral endopeptidase (P08473 whole entry, species assumed): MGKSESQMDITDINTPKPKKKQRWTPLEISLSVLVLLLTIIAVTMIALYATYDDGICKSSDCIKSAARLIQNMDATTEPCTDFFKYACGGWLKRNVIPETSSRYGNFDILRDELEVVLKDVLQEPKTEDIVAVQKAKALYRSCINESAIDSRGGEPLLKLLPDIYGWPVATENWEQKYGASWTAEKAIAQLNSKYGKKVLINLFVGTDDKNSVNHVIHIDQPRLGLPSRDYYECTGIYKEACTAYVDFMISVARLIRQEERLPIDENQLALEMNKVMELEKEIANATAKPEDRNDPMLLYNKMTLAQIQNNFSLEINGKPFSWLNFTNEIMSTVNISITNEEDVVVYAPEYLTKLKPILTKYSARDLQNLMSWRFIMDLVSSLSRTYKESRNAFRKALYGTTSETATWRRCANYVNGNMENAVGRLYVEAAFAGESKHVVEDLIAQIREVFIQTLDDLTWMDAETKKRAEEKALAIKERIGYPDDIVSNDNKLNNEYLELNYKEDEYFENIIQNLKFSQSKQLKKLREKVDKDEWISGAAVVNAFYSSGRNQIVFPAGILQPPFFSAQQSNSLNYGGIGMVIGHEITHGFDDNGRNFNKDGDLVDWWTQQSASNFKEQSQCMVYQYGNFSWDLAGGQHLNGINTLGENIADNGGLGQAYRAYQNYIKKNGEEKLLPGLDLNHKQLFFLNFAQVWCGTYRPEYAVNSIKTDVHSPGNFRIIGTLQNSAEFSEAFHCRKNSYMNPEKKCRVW
Chain of HMG-CoA reductase (P04035 whole entry, species assumed): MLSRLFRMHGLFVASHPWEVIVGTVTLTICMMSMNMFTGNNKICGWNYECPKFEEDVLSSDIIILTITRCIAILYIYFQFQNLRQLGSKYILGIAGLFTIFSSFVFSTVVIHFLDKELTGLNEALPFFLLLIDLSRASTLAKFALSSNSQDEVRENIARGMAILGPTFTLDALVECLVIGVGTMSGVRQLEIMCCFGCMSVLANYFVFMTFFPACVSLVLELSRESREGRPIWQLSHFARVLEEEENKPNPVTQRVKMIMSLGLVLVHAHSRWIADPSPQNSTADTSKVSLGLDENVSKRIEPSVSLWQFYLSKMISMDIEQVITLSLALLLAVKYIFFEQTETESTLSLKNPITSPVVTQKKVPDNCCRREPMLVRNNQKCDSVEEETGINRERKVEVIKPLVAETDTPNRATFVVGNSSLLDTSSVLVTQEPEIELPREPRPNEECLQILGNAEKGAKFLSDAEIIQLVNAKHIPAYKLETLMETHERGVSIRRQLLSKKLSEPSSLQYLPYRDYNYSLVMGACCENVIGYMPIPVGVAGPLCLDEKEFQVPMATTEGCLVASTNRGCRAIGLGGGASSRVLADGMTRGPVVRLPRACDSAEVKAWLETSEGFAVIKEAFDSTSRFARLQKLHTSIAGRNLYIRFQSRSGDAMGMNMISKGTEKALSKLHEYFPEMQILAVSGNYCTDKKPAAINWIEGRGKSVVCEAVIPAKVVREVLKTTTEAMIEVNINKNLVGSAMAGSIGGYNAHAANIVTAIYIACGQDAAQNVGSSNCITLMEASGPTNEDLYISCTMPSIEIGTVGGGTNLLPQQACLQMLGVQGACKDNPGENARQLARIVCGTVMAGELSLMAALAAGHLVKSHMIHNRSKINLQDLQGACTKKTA

Consider `Fc1cc(F)cc(Cn2cc[nH]c2=S)c1` [SKF-102698, reference compound], for which inhibition in assay [1] (0.1 mM tyramine, 4 mM ascorbate, pH 5.2) was half-maximal at 0.085 ± 0.0037 µM (IC50).
As for `Cl.NCc1c[nH]c(=S)n1[C@H]1CCc2c(F)cc(F)cc2C1` [nepicastat, (S)-5-Aminomethyl-1-(5,7-difluoro-1,2,3,4-tetrahydronaphth-2-yl)-2,3-dihydro-2-thioxo-1H-imidazole hydrochloride], the dopamine/norepinephrine levels entry in [2] (10 day study) and in [2] (30 day study) was “increased dopamine/norepinephrine levels” in each case. For the same compound, the half-inhibitory concentration (IC50) against HMG-CoA reductase, against cyclooxygenase-I, against nitric oxide synthase, at phosphodiesterase III, at protein kinase C and against neutral endopeptidase was above 10 µM in each case. The IC50 in assay [3] and in assay [4] was above 10 µM in each case. The “selectivity for dopamine-β-hydroxylase over the other enzymes studied” value in [1] is given as above 1000 fold. Besides, the “potency of nepicastat relative to SKF-102698” value in assay [1] (human DBH) is recorded as 9 fold; in assay [1] (human and bovine DBH) it was 8-9 fold. Moreover, the “potency of nepicastat relative to the R-enantiomer” value in assay [1] (human and bovine DBH) is on record as 2-3 fold. In [1] (human enzyme), the “potency of nepicastat relative to Compound B” value is 2 fold.

The values above are taken from patent US10561638B2, “Methods for treating dependence” (Biotie Therapies, Inc., priority 2007, dated 2020).
